Test results: patent US20260274832A1, “COMPOUNDS AND THEIR USE IN TREATING CANCER” (ASTRAZENECA AB, priority 2023, published 2026)

Tests used:
[1] = biological target: T1, AR (AR-full length) in LNCaP cells (Homo sapiens, UniProt P10275, T878A); assay: LNCaP Androgen Receptor Imaging Assay (immunofluorescence of endogenous nuclear AR); assay type: cell-based; conditions: 24 h incubation; for DC50: concentration giving 50% of maximum degradation of AR per curve fit, single experiment or average of two or more; for Dmax: LNCaP, maximum degradation observed, normalized as % of positive control (prior art AR PROTAC at 3 μM)
T1 construct: the prostate cancer cell line LNCaP (expressing AR-full length); endogenous in cells; host or cells: LNCaP
T1 sequence (P10275 whole entry T878A): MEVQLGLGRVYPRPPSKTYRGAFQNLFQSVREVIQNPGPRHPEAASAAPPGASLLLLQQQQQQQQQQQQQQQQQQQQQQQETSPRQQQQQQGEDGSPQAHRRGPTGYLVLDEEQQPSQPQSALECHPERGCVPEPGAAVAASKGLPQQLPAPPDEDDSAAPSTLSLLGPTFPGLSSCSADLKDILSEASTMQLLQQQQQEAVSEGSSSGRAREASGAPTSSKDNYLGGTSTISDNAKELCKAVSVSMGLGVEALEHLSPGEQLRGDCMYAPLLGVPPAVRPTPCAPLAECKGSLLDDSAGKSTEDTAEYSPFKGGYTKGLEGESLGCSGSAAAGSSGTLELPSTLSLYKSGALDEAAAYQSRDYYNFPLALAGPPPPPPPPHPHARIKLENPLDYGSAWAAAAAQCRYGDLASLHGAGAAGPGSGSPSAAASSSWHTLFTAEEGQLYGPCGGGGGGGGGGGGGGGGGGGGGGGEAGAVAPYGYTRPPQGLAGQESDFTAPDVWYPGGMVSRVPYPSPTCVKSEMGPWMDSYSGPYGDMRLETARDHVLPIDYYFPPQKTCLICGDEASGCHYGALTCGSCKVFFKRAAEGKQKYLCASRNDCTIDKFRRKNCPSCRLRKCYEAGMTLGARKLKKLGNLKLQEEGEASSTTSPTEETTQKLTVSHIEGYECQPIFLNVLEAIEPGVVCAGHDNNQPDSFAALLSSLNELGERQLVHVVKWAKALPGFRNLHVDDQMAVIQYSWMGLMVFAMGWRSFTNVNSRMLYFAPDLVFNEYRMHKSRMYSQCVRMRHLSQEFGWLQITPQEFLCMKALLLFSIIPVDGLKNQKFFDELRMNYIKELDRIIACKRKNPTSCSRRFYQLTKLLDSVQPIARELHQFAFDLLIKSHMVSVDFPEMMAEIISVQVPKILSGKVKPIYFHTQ
T1 sequence (Q96SW2 whole entry partner): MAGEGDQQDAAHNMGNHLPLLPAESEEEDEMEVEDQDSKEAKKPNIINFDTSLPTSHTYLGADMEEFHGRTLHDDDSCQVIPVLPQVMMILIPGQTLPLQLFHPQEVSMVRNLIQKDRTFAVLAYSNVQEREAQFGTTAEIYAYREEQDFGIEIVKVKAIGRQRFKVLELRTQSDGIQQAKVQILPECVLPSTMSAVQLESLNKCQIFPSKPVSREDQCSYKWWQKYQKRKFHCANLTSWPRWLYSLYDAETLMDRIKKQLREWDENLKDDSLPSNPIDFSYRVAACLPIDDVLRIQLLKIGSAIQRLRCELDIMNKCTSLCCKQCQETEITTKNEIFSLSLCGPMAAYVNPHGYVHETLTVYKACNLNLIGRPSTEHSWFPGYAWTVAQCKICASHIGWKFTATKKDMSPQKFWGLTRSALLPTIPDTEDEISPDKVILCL
Summary of the method: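 Endogenous nuclear AR level was imaged by immunofluorescence after 24 h compound exposure (12-point dose response, 0.3% DMSO, 37° C./5% CO2) in LNCaP cells. Data were expressed as % of a 3 μM prior-art AR PROTAC control and fitted (bell fit where a hook appeared) to give DC50 and maximum degradation Dmax.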

[2] = biological target: T2, AR (L702H) in LNCaP cells (Homo sapiens, UniProt P10275, L702H/T878A); assay: LNCaP Androgen Receptor L702H Imaging Assay (LNCaP cells engineered by CRISPR/Cas9); assay type: cell-based; conditions: LNCaP cells with AR L702H mutation, 24 h incubation; for DC50: concentration giving 50% of maximum degradation of AR (L702H) per curve fit; for Dmax: LNCaP, maximum degradation observed, normalized as % of positive control
T2 construct: engineered to introduce the mutation L702H into the AR gene using CRISPR/Cas9; endogenous in cells; host or cells: LNCaP cells edited by CRISPR/Cas9 at the AR gene
T2 sequence (P10275 whole entry L702H/T878A): as the sequence (P10275 whole entry T878A) above, with L702H counted along it
T2 sequence (Q96SW2 whole entry partner): as the sequence (Q96SW2 whole entry partner) above
Summary of the method: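 AR (L702H) degradation, expressed as DC50 and Dmax from curve fits normalized to a positive degrader control, was measured by high-content imaging of anti-AR immunofluorescence. The engineered LNCaP line was dosed over 12 concentrations for 24 h, 0.3% DMSO final, before PFA fixation.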

Row | SMILES | DC50 [1] [nM] | Dmax [1] [%] | DC50 [2] [nM] | Dmax [2] [%]
1 | N#Cc1n[nH]c2c(N3CCC(c4ccc(N5CCC(CN6CCC(n7ccc8c(N9CCC(=O)NC9=O)cccc87)CC6)CC5)cc4)CC3)ccc(Cl)c12 [Example 146, 4-Chloro-7-(4-{4-[4-({4-[4-(2,4-dioxo-1,3-diazinan-1-yl)-1H-indol-1-yl]piperidin-1-yl}methyl)piperidin-1-yl]phenyl}piperidin-1-yl)-1H-indazole-3-carbonitrile] | 27 | 100 | 38 | 102
2 | N#Cc1n[nH]c2c(N3CCC(c4ccc(N5CCC(CN6CCC(n7ccc8c(N9CCC(=O)NC9=O)cccc87)CC6)CC5)cc4)CC3)ccc(F)c12 [Example 147, 7-(4-{4-[4-({4-[4-(2,4-Dioxo-1,3-diazinan-1-yl)-1H-indol-1-yl]piperidin-1-yl}methyl)piperidin-1-yl]phenyl}piperidin-1-yl)-4-fluoro-1H-indazole-3-carbonitrile] | 6 | 102 | 38 | 96
3 | COc1cc(N2CCN(CCCCOc3ccc(C4CCN(c5ccc(C)c6c(C#N)n[nH]c56)CC4)cc3)CC2)cc2c1C(=O)N(C1CCC(=O)NC1=O)C2 (centres unmarked) [Example 148, 7-{4-[4-(4-{4-[2-(2,6-Dioxopiperidin-3-yl)-7-methoxy-1-oxo-2,3-dihydro-1H-isoindol-5-yl]piperazin-1-yl}butoxy)phenyl]piperidin-1-yl}-4-methyl-1H-indazole-3-carbonitrile] | 20 | 99 | 52 | 89
4 | COc1cc(N2CCN(CC3CCN(c4ccc(C5CCN(c6ccc(C)c7c(C#N)n[nH]c67)CC5)cc4)CC3)CC2)cc2c1C(=O)N(C1CCC(=O)NC1=O)C2 (centres unmarked) [Example 149, 7-(4-{4-[4-({4-[2-(2,6-Dioxopiperidin-3-yl)-7-methoxy-1-oxo-2,3-dihydro-1H-isoindol-5-yl]piperazin-1-yl}methyl)piperidin-1-yl]phenyl}piperidin-1-yl)-4-methyl-1H-indazole-3-carbonitrile] | 20 | 96 | 60 | 91
5 | N#Cc1n[nH]c2c(N3CCC(NC(=O)c4ccc(N5CCC(CN6CCC(n7ccc8c(N9CCC(=O)NC9=O)cccc87)CC6)CC5)cc4F)CC3)ccc(Cl)c12 [Example 152, N-[1-(4-Chloro-3-cyano-1H-indazol-7-yl)piperidin-4-yl]-4-[4-({4-[4-(2,4-dioxo-1,3-diazinan-1-yl)-1H-indol-1-yl]piperidin-1-yl}methyl)piperidin-1-yl]-2-fluorobenzamide] | 2 | 105 | 2 | 108
6 | N#Cc1c[nH]c2c(N3CCC(NC(=O)c4ccc(N5CCC(CN6Cc7cc8c(cc7C6)C(=O)N(C6CCC(=O)NC6=O)C8=O)CC5)cc4F)CC3)ccc(Cl)c12 (centres unmarked) [Example 155, N-[1-(4-Chloro-3-cyano-1H-indol-7-yl)piperidin-4-yl]-4-(4-{[6-(2,6-dioxopiperidin-3-yl)-5,7-dioxo-3,5,6,7-tetrahydropyrrolo[3,4-f]isoindol-2(1H)-yl]methyl}piperidin-1-yl)-2-fluorobenzamide] | 4 | 80 | 17 | 82
7 | N#Cc1c[nH]c2c(N3CCC(NC(=O)c4ccc(N5CCC(CN6CCN(c7ccc8c(c7)CN(C7CCC(=O)NC7=O)C8=O)CC6)CC5)cc4F)CC3)ccc(Cl)c12 (centres unmarked) [Example 159, N-[1-(4-Chloro-3-cyano-1H-indol-7-yl)piperidin-4-yl]-4-[4-({4-[2-(2,6-dioxopiperidin-3-yl)-1-oxo-2,3-dihydro-1H-isoindol-5-yl]piperazin-1-yl}methyl)piperidin-1-yl]-2-fluorobenzamide] | 2 | 101 | 3 | 106
8 | Cc1cc(C(=O)NC2CCN(c3ccc(Cl)c4c(C#N)c[nH]c34)CC2)ccc1N1CCC(CN2CCC(n3ccc4c(N5CCC(=O)NC5=O)cccc43)CC2)CC1 [Example 164, N-[1-(4-Chloro-3-cyano-1H-indol-7-yl)piperidin-4-yl]-4-[4-({4-[4-(2,4-dioxo-1,3-diazinan-1-yl)-1H-indol-1-yl]piperidin-1-yl}methyl)piperidin-1-yl]-3-methylbenzamide] | 2 | 108 | 2 | 114

Next, values leading:

Row | DC50 [1] [nM] | Dmax [1] [%] | DC50 [2] [nM] | Dmax [2] [%] | SMILES
9 | 2 | 109 | 3 | 114 | N#Cc1c[nH]c2c(N3CCC(NC(=O)c4ccc(N5CCC(CN6CCC(n7ccc8cc(N9CCC(=O)NC9=O)ccc87)CC6)CC5)cc4F)CC3)ccc(Cl)c12 [Example 153, N-[1-(4-Chloro-3-cyano-1H-indol-7-yl)piperidin-4-yl]-4-[4-({4-[5-(2,4-dioxo-1,3-diazinan-1-yl)-1H-indol-1-yl]piperidin-1-yl}methyl)piperidin-1-yl]-2-fluorobenzamide]
10 | 4 | 81 | 9 | 79 | N#Cc1c[nH]c2c(N3CCC(NC(=O)c4ccc(N5CCC(CN6CCN(c7ccc(C(=O)NC8CCC(=O)NC8=O)c(F)c7)CC6)CC5)cc4F)CC3)ccc(Cl)c12 (centres unmarked) [Example 154]
11 | 5 | 104 | 10 | 105 | Cn1c(C2CCN(CC3CCN(c4ccc(C(=O)NC5CCN(c6ccc(Cl)c7c(C#N)c[nH]c67)CC5)c(F)c4)CC3)CC2)cc2cc(F)c(N3CCC(=O)NC3=O)cc21 [Example 156, N-[1-(4-Chloro-3-cyano-1H-indol-7-yl)piperidin-4-yl]-4-[4-({4-[6-(2,4-dioxo-1,3-diazinan-1-yl)-5-fluoro-1-methyl-1H-indol-2-yl]piperidin-1-yl}methyl)piperidin-1-yl]-2-fluorobenzamide]
12 | 3 | 97 | 4 | 96 | Cn1c(=O)n(C2CCC(=O)NC2=O)c2cccc(N3CCN(CC4CCN(c5ccc(C(=O)NC6CCN(c7ccc(Cl)c8c(C#N)c[nH]c78)CC6)c(F)c5)CC4)CC3)c21 (centres unmarked) [Example 157, N-[1-(4-Chloro-3-cyano-1H-indol-7-yl)piperidin-4-yl]-4-[4-({4-[1-(2,6-dioxopiperidin-3-yl)-3-methyl-2-oxo-2,3-dihydro-1H-benzimidazol-4-yl]piperazin-1-yl}methyl)piperidin-1-yl]-2-fluorobenzamide]
13 | 1 | 104 | 7 | 107 | Cn1c(C2CCN(CC3CCN(c4ccc(C(=O)NC5CCN(c6ccc(Cl)c7c(C#N)c[nH]c67)CC5)c(F)c4)CC3)CC2)cc2ccc(N3CCC(=O)NC3=O)cc21 [Example 158, N-[1-(4-Chloro-3-cyano-1H-indol-7-yl)piperidin-4-yl]-4-[4-({4-[6-(2,4-dioxo-1,3-diazinan-1-yl)-1-methyl-1H-indol-2-yl]piperidin-1-yl}methyl)piperidin-1-yl]-2-fluorobenzamide]
14 | 1 | 104 | 4 | 105 | N#Cc1c[nH]c2c(N3CCC(NC(=O)c4ccc(N5CCC(CN6CCC(n7ccc8c(N9CCC(=O)NC9=O)cccc87)CC6)CC5)cc4F)CC3)ccc(Cl)c12 [Example 160, N-[1-(4-Chloro-3-cyano-1H-indol-7-yl)piperidin-4-yl]-4-[4-({4-[4-(2,4-dioxo-1,3-diazinan-1-yl)-1H-indol-1-yl]piperidin-1-yl}methyl)piperidin-1-yl]-2-fluorobenzamide]
15 | 7 | 95 | 20 | 98 | N#Cc1c[nH]c2c(N3CCC(NC(=O)c4ccc(N5CCC(CN6CCN(c7cc8c(cc7F)C(=O)N(C7CCC(=O)NC7=O)C8=O)CC6)CC5)cc4F)CC3)ccc(Cl)c12 (centres unmarked) [Example 161, N-[1-(4-Chloro-3-cyano-1H-indol-7-yl)piperidin-4-yl]-4-[4-({4-[2-(2,6-dioxopiperidin-3-yl)-6-fluoro-1,3-dioxo-2,3-dihydro-1H-isoindol-5-yl]piperazin-1-yl}methyl)piperidin-1-yl]-2-fluorobenzamide]
16 | 1 | 106 | 1 | 110 | N#Cc1cc(N2CCC(CN3CCC(n4ccc5c(N6CCC(=O)NC6=O)cccc54)CC3)CC2)ccc1C(=O)NC1CCN(c2ccc(Cl)c3c(C#N)c[nH]c23)CC1 [Example 162, N-[1-(4-Chloro-3-cyano-1H-indol-7-yl)piperidin-4-yl]-2-cyano-4-[4-({4-[4-(2,4-dioxo-1,3-diazinan-1-yl)-1H-indol-1-yl]piperidin-1-yl}methyl)piperidin-1-yl]benzamide]
17 | 1 | 107 | 2 | 113 | Cc1cc(N2CCC(CN3CCC(n4ccc5c(N6CCC(=O)NC6=O)cccc54)CC3)CC2)cc(F)c1C(=O)NC1CCN(c2ccc(Cl)c3c(C#N)c[nH]c23)CC1 [Example 163, N-[1-(4-Chloro-3-cyano-1H-indol-7-yl)piperidin-4-yl]-4-[4-({4-[4-(2,4-dioxo-1,3-diazinan-1-yl)-1H-indol-1-yl]piperidin-1-yl}methyl)piperidin-1-yl]-2-fluoro-6-methylbenzamide]
